Data as given in patent US10221178B2, “Purine inhibitors of human phosphatidylinositol 3-kinase delta” (MERCK SHARP & DOHME CORP., priority 2015, dated 2019).

Columns and labels:
PI3Kdelta = PI3Kdelta (Homo sapiens (Human), UniProt O00329); test: HTRF PI3K biochemical assay, delta isoform; settings: 0.3 nM enzyme, 100 uM ATP, 5 uM PIP2, form screened: Neutral
Source text: (§1) HTRF PI3K Biochemical Assay to Measure Intrinsic Potency of Compound Inhibitors
(§2) The PI3-Kinase biochemical assays were developed to measure the intrinsic potency and compound dependent inhibition of the alpha, beta, delta, and gamma PI3K isoform enzymes.
(§3) This assay was developed and further optimized from a kit produced by Upstate (Millipore catalog #33-047) and has been configured for HTS (high throughput screening) and SAR screening. Briefly, this procedure exploits the exquisite specificity and high affinity binding of enzyme reaction substrate phosphatidyl(3,4,5)triphosphate (PIP3) to the GRP1 pleckstrin homology (PH) domain to generate the signal. In the absence of PIP3, an HTRF (Homogeneous Time-Resolved Fluorescence energy transfer) complex is formed consisting of europium (Eu)-labeled anti-GST, GSTtagged GRP1-PH domain, biotin-PIP3 and streptavidin conjugated APC. The native PIP3 produced by PI3-Kinase activity disrupts in a competitive manner the biotin-PIP3 from the PH domain, resulting in the loss of energy transfer (HTRF complex) and a decrease in the signal. The format of this assay is the same for all 4 isoforms of PI3K; the differences lie in the concentration of enzyme used to achieve robust assay window. The alpha, beta, and delta assays are run at 0.5, 1, and 0.3 nM enzymes and the gamma assay is run at 5 nM enzyme. The ATP concentration is 100 uM in the alpha, beta, and delta assays and 50 uM ATP in the gamma assay. All reactions are run at 5 uM PIP2.
(§4) Compounds are serially diluted (3-fold in 100% DMSO) across a 384-well polypropylene source plated from column 3 to column 12 and column 13 to column 22, to yield 10 concentration dose response for each test compound. Columns 1, 2, 23 and 24 contain either only DMSO or pharmacological known control inhibitor. Once titrations are made, 2.5 nL of the compounds on 384 well plates are reformatted and transferred by acoustic dispense in quadruplicates to a 1536 assay plate (Greiner) to assay across all four PI3K isoform enzymes.
(§5) The PI3-Kinase biochemical assay was optimized using the HTRF kit provided by Upstate (Millipore). The assay kit contains six reagents: 1) 4× Reaction Buffer; 2) native PIP2 (substrate); 3) Stop (EDTA); 4) Detection Mix A (Streptavidin-APC); 5) Detection Mix B (Eu-labeled Anti-GST plus GST-tagged PH-domain); 6) Detection Mix C. In addition, the following items were obtained or purchased; PI3Kinase (alpha 14-602, beta 14-603, gamma 14-558 and delta 14-604 from Upstate; Millipore), dithiothreitol (Sigma, D-5545), Adenosine-5′ triphosphate (InVitrogen, Cat#AS001A), native PIP3 (PI(3,4,5)P3, diC8, H^+, CELLSIGNALS, INC. Cat #907) DMSO (Sigma, 472301).
(§6) PI3Kinase Reaction Buffer is prepared by dilution the stock 1:4 with de-ionized water. DTT, PIP2 and Biotin-PIP3 were added to 1536 assay plate at a final concentration of 5 mM, […] on the day of use. Enzyme addition and compound pre-incubation are initiated by the addition of 1.25 ul of PI3K (at twice its final concentration) in the 1× reaction buffer to all wells using a BioRaptor. Plates are incubated at RT for 15 minutes. Reactions are initiated by addition of 1.25 ul of 2× substrate solution (PIP2 and ATP in 1× reaction buffer) using BioRaptor. Plates are incubated in humidified chamber at RT for one hour. Reactions are quenched by addition of 0.625 uL of stop solution to all wells using the BioRaptor. The quenched reactions are then processed to detect product formation by adding 0.625 uL of Detection Solution to all wells using the BioRaptor (Detection mix C, Detection Mix A, and Detection Mix B combined together in an 18:1:1 ratio prepared 2 hours prior to use). Following a one hour incubation in the dark, the HTRF signal is measured on the Envision plate reader set for 330 nm excitation and dual emission detection at 620 nM (Eu) and 665 nM (APC).

PI3Kalpha = PI3Kalpha (Homo sapiens (Human), UniProt P42336); test: HTRF PI3K biochemical assay, alpha isoform (selectivity versus PI3Kalpha); settings: relative ratio (PI3K-alpha IC50 value/PI3K-delta IC50 value); form screened: Neutral
Chain of PI3Kalpha (P42336 whole entry, canonical isoform): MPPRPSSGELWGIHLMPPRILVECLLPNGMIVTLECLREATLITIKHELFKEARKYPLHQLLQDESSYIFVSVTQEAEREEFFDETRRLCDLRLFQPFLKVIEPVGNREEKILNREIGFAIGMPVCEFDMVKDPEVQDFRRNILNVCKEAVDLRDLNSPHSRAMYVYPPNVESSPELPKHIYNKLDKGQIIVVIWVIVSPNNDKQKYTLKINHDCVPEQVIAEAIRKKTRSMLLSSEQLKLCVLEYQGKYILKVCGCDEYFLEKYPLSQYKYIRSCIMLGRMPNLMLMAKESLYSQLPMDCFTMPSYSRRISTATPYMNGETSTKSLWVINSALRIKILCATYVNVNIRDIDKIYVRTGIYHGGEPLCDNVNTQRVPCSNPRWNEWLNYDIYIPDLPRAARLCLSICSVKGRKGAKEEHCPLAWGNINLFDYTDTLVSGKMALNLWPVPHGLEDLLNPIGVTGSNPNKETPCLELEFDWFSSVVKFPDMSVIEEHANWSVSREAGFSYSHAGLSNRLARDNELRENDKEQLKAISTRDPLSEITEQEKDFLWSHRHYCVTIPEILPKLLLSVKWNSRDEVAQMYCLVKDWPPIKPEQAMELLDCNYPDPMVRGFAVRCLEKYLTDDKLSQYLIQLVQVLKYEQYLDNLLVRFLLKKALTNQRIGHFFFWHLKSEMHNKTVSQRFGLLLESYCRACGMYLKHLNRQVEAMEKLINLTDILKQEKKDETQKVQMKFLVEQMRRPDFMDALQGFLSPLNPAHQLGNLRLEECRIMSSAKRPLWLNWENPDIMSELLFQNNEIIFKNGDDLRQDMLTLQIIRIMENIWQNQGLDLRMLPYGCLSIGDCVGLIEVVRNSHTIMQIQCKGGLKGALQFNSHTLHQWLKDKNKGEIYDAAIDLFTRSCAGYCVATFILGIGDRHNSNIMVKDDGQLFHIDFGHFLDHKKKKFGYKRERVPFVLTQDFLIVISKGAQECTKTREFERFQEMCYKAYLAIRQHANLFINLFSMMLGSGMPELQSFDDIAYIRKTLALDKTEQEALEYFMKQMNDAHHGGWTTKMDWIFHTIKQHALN
Chain of PI3Kalpha (P27986 whole entry partner, canonical isoform): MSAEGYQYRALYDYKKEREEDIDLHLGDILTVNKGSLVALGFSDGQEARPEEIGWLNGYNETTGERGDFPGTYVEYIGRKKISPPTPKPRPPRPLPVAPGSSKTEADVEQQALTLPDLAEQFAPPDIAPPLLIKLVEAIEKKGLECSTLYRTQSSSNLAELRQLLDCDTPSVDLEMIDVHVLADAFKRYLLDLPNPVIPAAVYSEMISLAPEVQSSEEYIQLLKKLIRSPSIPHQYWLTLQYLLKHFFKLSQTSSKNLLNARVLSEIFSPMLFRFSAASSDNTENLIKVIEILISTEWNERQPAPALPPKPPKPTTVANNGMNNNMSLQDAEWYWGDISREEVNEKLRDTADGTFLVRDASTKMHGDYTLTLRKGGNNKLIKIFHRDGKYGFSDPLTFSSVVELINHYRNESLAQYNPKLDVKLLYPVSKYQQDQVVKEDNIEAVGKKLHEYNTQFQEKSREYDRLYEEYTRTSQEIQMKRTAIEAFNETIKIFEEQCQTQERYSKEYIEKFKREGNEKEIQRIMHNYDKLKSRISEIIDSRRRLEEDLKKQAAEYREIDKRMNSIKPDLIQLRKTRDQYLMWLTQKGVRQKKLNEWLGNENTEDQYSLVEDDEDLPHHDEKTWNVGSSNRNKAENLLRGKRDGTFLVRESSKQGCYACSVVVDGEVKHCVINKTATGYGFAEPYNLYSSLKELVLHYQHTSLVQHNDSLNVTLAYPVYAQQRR
Source text: as §1, §2, §3, §4, §5
as §6, with “[…]. […]” for “(APC).”

Chain of PI3Kdelta (O00329 whole entry, canonical isoform): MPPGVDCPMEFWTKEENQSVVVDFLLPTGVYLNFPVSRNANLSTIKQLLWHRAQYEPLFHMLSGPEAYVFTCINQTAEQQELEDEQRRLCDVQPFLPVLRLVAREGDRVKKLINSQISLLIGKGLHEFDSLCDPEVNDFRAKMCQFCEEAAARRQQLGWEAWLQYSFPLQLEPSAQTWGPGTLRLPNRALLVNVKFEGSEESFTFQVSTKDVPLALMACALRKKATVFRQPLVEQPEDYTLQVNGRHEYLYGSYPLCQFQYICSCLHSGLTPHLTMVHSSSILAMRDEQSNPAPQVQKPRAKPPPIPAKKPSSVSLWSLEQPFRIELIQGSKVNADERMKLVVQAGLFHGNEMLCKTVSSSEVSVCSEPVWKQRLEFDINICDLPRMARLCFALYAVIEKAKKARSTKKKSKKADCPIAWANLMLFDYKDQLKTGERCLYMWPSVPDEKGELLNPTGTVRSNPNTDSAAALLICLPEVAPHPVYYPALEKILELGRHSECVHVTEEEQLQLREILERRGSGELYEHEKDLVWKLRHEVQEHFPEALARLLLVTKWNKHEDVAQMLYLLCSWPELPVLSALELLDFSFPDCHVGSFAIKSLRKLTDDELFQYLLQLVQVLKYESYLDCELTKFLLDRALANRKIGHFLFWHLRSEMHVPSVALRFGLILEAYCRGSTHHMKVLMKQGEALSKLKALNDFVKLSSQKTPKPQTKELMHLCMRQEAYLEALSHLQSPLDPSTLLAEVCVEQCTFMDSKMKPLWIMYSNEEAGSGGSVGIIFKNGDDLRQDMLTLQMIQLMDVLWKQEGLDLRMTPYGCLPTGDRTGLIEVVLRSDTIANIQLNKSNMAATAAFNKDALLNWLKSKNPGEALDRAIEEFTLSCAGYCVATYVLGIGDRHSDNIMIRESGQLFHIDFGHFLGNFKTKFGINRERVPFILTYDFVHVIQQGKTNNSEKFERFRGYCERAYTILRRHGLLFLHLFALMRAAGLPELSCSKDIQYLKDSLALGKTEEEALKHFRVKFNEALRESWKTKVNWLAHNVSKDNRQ
Chain of PI3Kdelta (P27986 whole entry partner, canonical isoform): as the sequence (P27986 whole entry partner, canonical isoform) above

Row | Structure (SMILES) | IC50 (PI3Kdelta) | Selectivity versus PI3Kalpha (PI3Kalpha)
1 | CCn1c(-c2cnc(C)nc2)nc2c(N[C@H](CC(=O)N3CCCC3)C(C)C)ncnc21 [Compound 2-62, 9-ethyl-N-[(1R)-1-(1-methylethyl)-3-oxo-3-pyrrolidin-1-ylpropyl]-8-(2-methylpyrimidin-5-yl)-9H-purin-6-amine] | 0.1 µM | >10
2 | CCn1c(-c2cnc(C)nc2)nc2c(N[C@H](C(=O)N3C[C@@H](C)O[C@@H](C)C3)C(C)(C)O)ncnc21 [Compound 2-50, (3S)-4-[(cis)-2,6-dimethylmorpholin-4-yl]-3-{[9-ethyl-8-(2-methylpyrimidin-5-yl)-9H-purin-6-yl]amino}-2-methyl-4-oxobutan-2-ol] | 0.0087 µM | >10
3 | CCC(Nc1ncnc2c1nc(-c1cnc(C)nc1)n2CC)C(=O)N1CCc2c(c(C(C)C)nn2C)C1 (single isomer, unassigned) [Compound 5-2, (S or R)-9-ethyl-N-(1-{[1-methyl-3-(1-methylethyl)-1,4,6,7-tetrahydro-5H-pyrazolo[4,3-c]pyridin-5-yl]carbonyl}propyl)-8-(2-methylpyrimidin-5-yl)-9H-purin-6-amine] | 0.039 µM | >10
4 | CC[C@H](Nc1ncnc2c1nc(-c1cnc(C)nc1)n2CC)C(=O)N1CCOCC1(C)C [Compound 2-34, N-{(1S)-1-[(3,3-dimethylmorpholin-4-yl)carbonyl]propyl}-9-ethyl-8-(2-methylpyrimidin-5-yl)-9H-purin-6-amine] | 0.012 µM | >10
5 | CCn1c(-c2cnc(C)nc2)nc2c(N[C@H](C(=O)N3C[C@@H](C)O[C@@H](C)C3)[C@@H](C)OC)ncnc21 [Compound 2-52, N-[(1S,2R)-1-{[(cis)-2,6-dimethylmorpholin-4-yl]carbonyl}-2-methoxypropyl]-9-ethyl-8-(2-methylpyrimidin-5-yl)-9H-purin-6-amine] | 0.0037 µM | >10
6 | CC[C@H](Nc1ncnc2c1nc(-c1cnc(C)nc1)n2CC)C(=O)N1CCOCC1C(C)C (stereo partly drawn) [Compound 2-32, 9-ethyl-N-[(1S)-1-{[3-(1-methylethyl)morpholin-4-yl]carbonyl}propyl]-8-(2-methylpyrimidin-5-yl)-9H-purin-6-amine] | 0.083 µM | >10
7 | CC[C@H](Nc1ncnc2c1nc(-c1cnc(C)nc1)n2CC)C(=O)N1CCSC1C (mixture of isomers) [Compound 2-24, 9-ethyl-8-(2-methylpyrimidin-5-yl)-N-{(1S)-1-[((S and R)-2-methyl-1,3-thiazolidin-3-yl)carbonyl]propyl}-9H-purin-6-amine] | 0.027 µM | >10
8 | CCn1c(-c2cnc(C)nc2)nc2c(N[C@@H](COC)C(=O)N3C[C@@H](C)O[C@@H](C)C3)ncnc21 [Compound 2-46, N-[(1S)-2-[(cis)-2,6-dimethylmorpholin-4-yl]-1-(methoxymethyl)-2-oxoethyl]-9-ethyl-8-(2-methylpyrimidin-5-yl)-9H-purin-6-amine] | 0.027 µM | >10
9 | CC[C@H](Nc1ncnc2c1nc(-c1cnc(C)nc1)n2CC)C(=O)N1CCOC(C)(C)C1 [Compound 2-33, N-{(1S)-1-[(2,2-dimethylmorpholin-4-yl)carbonyl]propyl}-9-ethyl-8-(2-methylpyrimidin-5-yl)-9H-purin-6-amine] | 0.0098 µM | >10
10 | CC[C@H](Nc1ncnc2c1nc(-c1cnc(C)nc1)n2CC)C(=O)N1CC(=O)NC(C)(C)C1 [Compound 4-7, 4-[(2S)-2-{[9-ethyl-8-(2-methylpyrimidin-5-yl)-9H-purin-6-yl]amino}butanoyl]-6,6-dimethylpiperazin-2-one] | 0.019 µM | >10
11 | CC[C@H](Nc1ncnc2c1nc(-c1cnc(C)nc1)n2CC)C(=O)N1CCCC(C)C1 (mixture of isomers) [Compound 2-23, 9-ethyl-N-{(1S)-1-[((R and S)-3-methylpiperidin-1-yl)carbonyl]propyl}-8-(2-methylpyrimidin-5-yl)-9H-purin-6-amine] | 0.0093 µM | >10
12 | CC[C@H](Nc1ncnc2c1nc(-c1cnc(C)nc1)n2CC)C(=O)N1CC(C(F)F)C1 [Compound 2-11, N-[(1S)-1-{[3-(difluoromethyl)azetidin-1-yl]carbonyl}propyl]-9-ethyl-8-(2-methylpyrimidin-5-yl)-9H-purin-6-amine] | 0.06 µM | >10
13 | CCn1c(C(F)F)nc2c(N[C@@H](C)C(=O)N3C[C@@H](C)O[C@@H](C)C3)ncnc21 [Compound 2-5, 8-(difluoromethyl)-N-{(1S)-2-[(cis)-2,6-dimethylmorpholin-4-yl]-1-methyl-2-oxoethyl}-9-ethyl-9H-purin-6-amine] | 0.23 µM | >10
14 | CCn1c(-c2cnc(C)nc2)nc2c(NC[C@H](C)C(=O)N3C[C@@H](C)O[C@@H](C)C3)ncnc21 [Compound 2-54, N-{(2S)-3-[(cis)-2,6-dimethylmorpholin-4-yl]-2-methyl-3-oxopropyl}-9-ethyl-8-(2-methylpyrimidin-5-yl)-9H-purin-6-amine] | 0.25 µM | >10
15 | CCn1c(-c2cnc(C)nc2)nc2c(N[C@@H](CO)C(=O)N3C[C@@H](C)O[C@@H](C)C3)ncnc21 [Compound 2-47, (2S)-3-[(cis)-2,6-dimethylmorpholin-4-yl]-2-{[9-ethyl-8-(2-methylpyrimidin-5-yl)-9H-purin-6-yl]amino}-3-oxopropan-1-ol] | 0.012 µM | >10
16 | CCC(Nc1ncnc2c1nc(-c1cnc(C)nc1)n2CC)C(=O)N1CCOCC1 (single isomer, unassigned) [Compound 1-8, (R or S)-9-ethyl-8-(2-methylpyrimidin-5-yl)-N-[1-(morpholin-4-ylcarbonyl)propyl]-9H-purin-6-amine] | 0.0065 µM | >10
17 | CCn1c(-c2cnc(C)nc2)nc2c(NC[C@@H](C)C(=O)N3C[C@@H](C)O[C@@H](C)C3)ncnc21 [Compound 2-55, N-{(2R)-3-[(cis)-2,6-dimethylmorpholin-4-yl]-2-methyl-3-oxopropyl}-9-ethyl-8-(2-methylpyrimidin-5-yl)-9H-purin-6-amine] | 0.02 µM | >10
